Measurements published in publication PMC7717600, “Novel [(N-alkyl-3-indolylmethylene)hydrazono]oxindoles arrest cell cycle and induce cell apoptosis by inhibiting CDK2 and Bcl-2: synthesis, biological evaluation and in silico studies” (Journal of Enzyme Inhibition and Medicinal Chemistry, 2020).
Read-outs that look alike come from different tables or passages of the source.

Key:
OVCAR-4 = test: cells; conditions: Homo sapiens
HS 578T [1] = test system: HS 578T
U251 [2] = conditions: for TGI: U251
OVCAR-8 [3] = conditions: for TGI: OVCAR-8
HS 578T [4] = test: cells; conditions: Homo sapiens
UACC-62 = test: cells; conditions: Homo sapiens
NCI-H226 [5] = test: cells; conditions: Homo sapiens
BT-549 = test: cells; conditions: Homo sapiens
MCF7 = conditions: for TGI: MCF7
HOP-92 = conditions: for TGI: HOP-92
DU-145 = test: cells; conditions: Homo sapiens
A-549 = test: SRB anti-proliferative assay; format: cell-based; conditions: Homo sapiens, A549; A-549, SRB, mean ± SE of 3
Method: Staurosporine, a clinically used antitumor drug, was co-assayed as a reference agent for the experiment.
Examination of the cytotoxic activity for the target conjugates was carried out in accordance with the SRB colorimetric assay protocol, as described previously.
In vitro anti-proliferative activity assay
Cells at a concentration of 0.50 x
Sulfo-Rhodamine-B stain (SRB) assay.
cell to the wall of the plate.
wells were prepared for each individual dose).
Unbound dye was removed by four

HCT-15 = test: cells; conditions: Homo sapiens
KM12 = test: cells; conditions: Homo sapiens
HCC-2998 = test: NCI SRB screening; format: cell-based, human
NCI-H226 [6] = conditions: for TGI: NCI-H226
Bcl-2 = Bcl-2 (Homo sapiens, UniProt P10415); test: Bcl-2 inhibitory activity; format: biochemical; conditions: Bcl-2, mean ± SE of three
Chain of Bcl-2 (P10415 whole entry): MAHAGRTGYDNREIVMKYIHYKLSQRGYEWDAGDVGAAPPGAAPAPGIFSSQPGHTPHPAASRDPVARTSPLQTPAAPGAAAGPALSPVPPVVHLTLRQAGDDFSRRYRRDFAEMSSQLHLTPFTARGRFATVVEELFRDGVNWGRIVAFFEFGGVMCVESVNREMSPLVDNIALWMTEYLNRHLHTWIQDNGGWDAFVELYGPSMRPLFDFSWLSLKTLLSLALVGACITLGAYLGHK
Method: These assays were carried out as reported earlier[38]^,[39].

SF-295 = test: cells; conditions: Homo sapiens
RXF 393 [7] = conditions: for TGI: RXF 393
IGROV1 = test: cells; conditions: Homo sapiens
A549/ATCC [8] = test: cells; conditions: Homo sapiens
HOP-62 = conditions: for TGI: HOP-62
RPMI-8226 = test: cells; conditions: Homo sapiens
TK-10 = conditions: for TGI: TK-10
HCT-116 = conditions: for TGI: HCT-116
NCI-H460 = test: NCI SRB screening; format: cell-based, human
MALME-3M = test: cells; conditions: Homo sapiens
HL-60(TB) = test: cells; conditions: Homo sapiens
A549/ATCC [9] = test system: A549/ATCC
U251 [10] = test: cells; conditions: Homo sapiens
K-562 = test: cells; conditions: Homo sapiens
SNB-19 = test: cells; conditions: Homo sapiens
SF-539 = test: cells; conditions: Homo sapiens
NCI-H23 = conditions: for TGI: NCI-H23
RXF 393 [11] = test: cells; conditions: Homo sapiens
SN12C = test: cells; conditions: Homo sapiens
OVCAR-8 [12] = test: cells; conditions: Homo sapiens

CCCn1cc(C=NN=C2C(=O)Nc3ccc(C)cc32)c2ccccc21 [Compound 8a]
GI50 (OVCAR-4; OVCAR-4, OVCAR-4): 0.935 µM
CC50 (OVCAR-4; OVCAR-4, read-out: LC50): > 100 µM
TGI (EKVX): >100 µM
GI % (EKVX; 10 μM): 50%
Growth Percent (EKVX; 1.00E-5 Molar): 50.45%
TGI (EKVX; listed as D - 795311 / 1): > 1.00E-4 Molar
TGI (ACHN): >100 µM
GI % (ACHN; 10 μM): 45%
Growth Percent (ACHN; 1.00E-5 Molar): 55.74%
TGI (ACHN; listed as D - 795311 / 1): > 1.00E-4 Molar
TGI (HS 578T [1]): >100 µM
GI % (HS 578T [1]; 10 μM): 26%
Growth Percent (HS 578T [1]; 1.00E-5 Molar): 74.02%
TGI (HS 578T [1]; listed as D - 795311 / 1): > 1.00E-4 Molar
TGI (U251 [2]): 17.3 µM
GI % (U251 [2]; U251, 10 μM): 60%
Growth Percent (U251 [2]; U251, 1.00E-5 Molar): 39.96%
TGI (U251 [2]; listed as D - 795311 / 1): 1.73E-5 Molar
TGI (OVCAR-8 [3]): >100 µM
GI % (OVCAR-8 [3]; OVCAR-8, 10 μM): 53%
Growth Percent (OVCAR-8 [3]; OVCAR-8, 1.00E-5 Molar): 47.49%
TGI (OVCAR-8 [3]; listed as D - 795311 / 1): > 1.00E-4 Molar
GI50 (HS 578T [4]): 11.3 µM
CC50 (HS 578T [4]; read-out: LC50): > 100 µM
GI50 (UACC-62; UACC-62): 2.24 µM
CC50 (UACC-62; UACC-62, read-out: LC50): > 100 µM
GI50 (MOLT-4; MOLT-4): 0.68 µM
TGI (MOLT-4; MOLT-4): 4.54 µM
GI % (MOLT-4; MOLT-4, 10 μM): 110%
Growth Percent (MOLT-4; MOLT-4, 1.00E-5 Molar): -9.90%
TGI (MOLT-4; MOLT-4, listed as D - 795311 / 1): 4.54E-6 Molar
GI50 (NCI-H226 [5]; NCI-H226): 2.95 µM
CC50 (NCI-H226 [5]; NCI-H226, read-out: LC50): > 100 µM
GI50 (BT-549; BT-549): 1.79 µM
CC50 (BT-549; BT-549, read-out: LC50): > 100 µM
TGI (MCF7): 15.50 µM
GI % (MCF7; MCF7, 10 μM): 91%
Growth Percent (MCF7; MCF7, 1.00E-5 Molar): 8.92%
TGI (MCF7; listed as D - 795311 / 1): 1.55E-5 Molar
TGI (HOP-92): 6.57 µM
GI % (HOP-92; HOP-92, 10 μM): 63%
Growth Percent (HOP-92; HOP-92, 1.00E-5 Molar): 37.42%
TGI (HOP-92; listed as D - 795311 / 1): 6.57E-6 Molar
GI50 (DU-145; DU-145): 3.88 µM
CC50 (DU-145; DU-145, read-out: LC50): > 100 µM
IC50 (A-549): 7.3 ± 0.42 µM
GI50 (HCT-15; HCT-15): 2.63 µM
CC50 (HCT-15; HCT-15, read-out: LC50): > 100 µM
GI50 (KM12; KM12): 3.22 µM
CC50 (KM12; KM12, read-out: LC50): > 100 µM
TGI (HCC-2998; HCC-2998): 5.14 µM
GI % (HCC-2998; HCC-2998, 10 μM): 53%
Growth Percent (HCC-2998; HCC-2998, 1.00E-5 Molar): 46.95%
TGI (HCC-2998; HCC-2998, listed as D - 795311 / 1): 5.14E-6 Molar
GI50 (HCC-2998; Homo sapiens, HCC-2998): 2.09 µM
TGI (NCI-H226 [6]): 20.6 µM
Growth Percent (NCI-H226 [6]; NCI-H226, 1.00E-5 Molar): 92.04%
TGI (NCI-H226 [6]; listed as D - 795311 / 1): 2.06E-5 Molar
IC50 (Bcl-2): 0.46 ± 0.02 µM
GI50 (SF-295; SF-295): 8.41 µM
CC50 (SF-295; SF-295, read-out: LC50): > 100 µM
TGI (RXF 393 [7]): 7.94 µM
GI % (RXF 393 [7]; RXF 393, 10 μM): 89%
Growth Percent (RXF 393 [7]; RXF 393, 1.00E-5 Molar): 11.38%
TGI (RXF 393 [7]; listed as D - 795311 / 1): 7.94E-6 Molar
GI50 (IGROV1; IGROV-1): 3.38 µM
CC50 (IGROV1; IGROV-1, read-out: LC50): > 100 µM
TGI (NCI/ADR-RES): 89.90 µM
GI % (NCI/ADR-RES; 10 μM): 24%
Growth Percent (NCI/ADR-RES; 1.00E-5 Molar): 76.32%
TGI (NCI/ADR-RES; listed as D - 795311 / 1): 8.99E-5 Molar
GI50 (A549/ATCC [8]; A549): 7.18 µM
CC50 (A549/ATCC [8]; A549, read-out: LC50): > 100 µM
TGI (HOP-62): 25.0 µM
GI % (HOP-62; HOP-62, 10 μM): 25%
Growth Percent (HOP-62; HOP-62, 1.00E-5 Molar): 75.35%
TGI (HOP-62; listed as D - 795311 / 1): 2.50E-5 Molar
GI50 (RPMI-8226; RPMI-8226): 1.33 µM
CC50 (RPMI-8226; RPMI-8226, read-out: LC50): > 100 µM
TGI (TK-10): >100 µM
GI % (TK-10; TK-10, 10 μM): – (Only GI % higher than 10% are shown)
Growth Percent (TK-10; TK-10, 1.00E-5 Molar): 106.72%
TGI (TK-10; listed as D - 795311 / 1): > 1.00E-4 Molar
TGI (HCT-116): 4.17 µM
GI % (HCT-116; HCT-116, 10 μM): 60%
Growth Percent (HCT-116; HCT-116, 1.00E-5 Molar): 39.85%
TGI (HCT-116; listed as D - 795311 / 1): 4.17E-6 Molar
CC50 (HCT-116; human, 48 h): 9.96 µM
GI50 (NCI-H460; Homo sapiens, NCI-H460): 2.17 µM
TGI (NCI-H460; NCI-H460): 10.6 µM
GI % (NCI-H460; NCI-H460, 10 μM): 68%
Growth Percent (NCI-H460; NCI-H460, 1.00E-5 Molar): 32.08%
TGI (NCI-H460; NCI-H460, listed as D - 795311 / 1): 1.06E-5 Molar
GI50 (MALME-3M): 1.88 µM
CC50 (MALME-3M; read-out: LC50): > 100 µM
GI50 (HL-60(TB); HL-60): 1.31 µM
CC50 (HL-60(TB); HL-60, read-out: LC50): > 100 µM
TGI (A549/ATCC [9]): 39.6 µM
GI % (A549/ATCC [9]; 10 μM): 36%
Growth Percent (A549/ATCC [9]; 1.00E-5 Molar): 63.93%
TGI (A549/ATCC [9]; listed as D - 795311 / 1): 3.96E-5 Molar
GI50 (U251 [10]; U-251): 3.51 µM
CC50 (U251 [10]; U-251, read-out: LC50): > 100 µM
GI50 (K-562; K562): 2.22 µM
CC50 (K-562; K562, read-out: LC50): > 100 µM
GI50 (SNB-19; SNB-19): 4.24 µM
CC50 (SNB-19; SNB-19, read-out: LC50): > 100 µM
GI50 (SF-539; SF-539): 2.69 µM
CC50 (SF-539; SF-539, read-out: LC50): > 100 µM
TGI (NCI-H23): 38.2 µM
GI % (NCI-H23; NCI-H23, 10 μM): 52%
Growth Percent (NCI-H23; NCI-H23, 1.00E-5 Molar): 48.03%
TGI (NCI-H23; listed as D - 795311 / 1): 3.82E-5 Molar
GI50 (RXF 393 [11]; RXF 393): 2.17 µM
CC50 (RXF 393 [11]; RXF 393, read-out: LC50): > 100 µM
GI50 (SN12C): 3.2 µM
CC50 (SN12C; read-out: LC50): > 100 µM
GI50 (OVCAR-8 [12]; OVCAR-8): 5.41 µM
CC50 (OVCAR-8 [12]; OVCAR-8, read-out: LC50): > 100 µM
